# Key:
# [1] = Plasma stability assay, rat plasma; assay type: in vitro ADME; conditions: 37° C., 10 μM
# Description: Plasma stability determination of the test compounds in rat, dog, cynomolgus monkey and human plasma is performed using HPLC-MS. For rat, incubations are carried out in 96-well polypropylene plates in 5 aliquots of 70 μL each (one for each time point). […] Five time points are analyzed (0, 15, 120, 480 and 1440 min). For dog, monkey and human, test compounds (2 μM, final solvent concentration 1%) were also incubated at 37° C. and analyzed at five time points (0, 10, 30, 60 and 120 min). All incubations are performed in duplicates. The samples are analyzed by HPLC-MS. The percentage of parent compound remaining after incubation in plasma is determined.
# [2] = Rat pharmacokinetic studies, intramuscular; assay type: in vivo, male Sprague Dawley Rats; conditions: for Mean conc Nalmefene: rat plasma, IM, 86 mg/ml at 17 mg/kg
# Description: The purpose of this study is to determine the pharmacokinetics of test compounds in plasma, following intramuscular administration to male Sprague Dawley Rats (n=3, unless otherwise specified).
# The dose formulation of 400 mg base equivalents/ml in sesame oil+1% benzyl alcohol (unless otherwise specified) was administered by intramuscular injection. The dose volume was determined by the animals' body weight determined on the morning of dosing day.
# (§1) Each collected blood sample was centrifuged for 4 minutes at 4° C. and 10000 rpm for plasma collection. Plasma was collected and transferred into a pre-labeled PP tube in dry ice at each time point and precipitated immediately using ACN at a ratio of 1:4 (plasma:ACN). Centrifuged again (10 minutes, 12000 rpm) and obtain the supernatant.
# After terminal collection, all supernatant was stored at approximately −80° C. until bioanalysis.
# (§2) LC-MS/MS methods for the quantitative determination of test compound in biological matrix were developed. […] The sample analysis was performed concurrently with a set of calibration standards and two sets of QC samples using the LC-MS/MS method.
# (§3) Plasma concentration versus time data was analyzed by non-compartmental approaches using the Phoenix WinNonlin 6.3 software program. Cmax, Tmax, T1/2, AUC(0-t), AUC(0-inf), MRT(0-t), MRT(0-inf) and graphs of plasma concentration versus time profile were prepared.
# [3] = Solubility determination in oil (cottonseed oil, sesame oil)
# Description: A known amount of test substance (˜40 mg) was weighed into the vial, 100 μL of oil was added and heated to 60° C. and then system was slurried to reach equilibrium. […] Extra oil was added into the vial once compound precipitated out and then the system was re-equilibrated at 1000 rpm at room temperature (25° C.). Final concentration was determined by HPLC method as described below in Table 6a and 6b.
# [4] = Dog clinical observations after intramuscular dosing; assay type: in vivo, Beagle dogs; conditions: dog D1502, compound 18 at 48 mg/kg; earlier weight, reported at 96 hr
# Description: Weight monitoring was done every week.
# (§4) The dose formulation (concentration−400 mg base equivalents/ml in sesame oil+1% benzyl alcohol, unless otherwise specified) was administered via deep intramuscularly (unless otherwise specified). The injection vehicle was also dosed via deep intramuscular route (unless otherwise specified) on contralateral site of each animal at study initiation. The animals were sedated with Propofol at 6 mg/kg via IV administration. Following sedation hair was carefully removed from around the injection site and the area gently cleaned. Care will be taken to avoid irritating skin during shaving and cleaning the injection site. Then dogs will be dosed with deep IM administration. At least 2.5 cm depth from the surface into the central aspect of the quadriceps or biceps femoris muscle, by angling the needle toward the femur. If the needle hits the femur, simply draws back slightly and then inject. The dose volume will be determined by the animals' body weight collected on the morning of dosing day. For repeated administration, the injection sites may be rotated to minimize tissue injury.
# [5] = Dog pharmacokinetic studies, deep intramuscular; assay type: in vivo, Beagle dogs; conditions: dog IM, 48 mg/kg, Sesame oil + 1% Benzyl Alcohol
# Description: The purpose of this study is to determine the pharmacokinetics of test compounds in plasma, following deep intramuscular administration to Beagle dogs (n=3, unless otherwise specified).
# as §4
# Blood samples were collected from a peripheral vessel from restrained, non-sedated animals per sampling time point.
# Approximately 0.8 mL blood will be collected at each time point.
# as §1
# After terminal collection, all supernatant was stored at approximately −80° C. F until bioanalysis.
# as §2, §3
# [6] = rat IM, 17 mg/kg, Sesame oil + 1% Benzyl Alcohol
# [7] = heating temp. 60 °C, obs. temp. 25 °C
SMILES,"% remaining at time point in minutes, 0 min [1]","% remaining at time point in minutes, 15 min [1]","% remaining at time point in minutes, 120 min [1]","% remaining at time point in minutes, 480 min [1]","% remaining at time point in minutes, 1440 min [1]","Approximate Solubility (mg/mL) in Excipient: Sesame oil [3, 7]",also measured
"C=C1CC[C@@]2(O)C3Cc4ccc(OC(=O)CCCCCCCCCCC)c5c4[C@@]2(CCN3CC2CC2)[C@H]1O5 [Compound 59, (4aS,7aS,12bS)-3-(cyclopropylmethyl)-4a-hydroxy-7-methylene-2,3,4,4a,5,6,7,7a-octahydro-1H-4,12-methanobenzofuro(3,2-c]isoquinolin-9-yl dodecanoate, reference compound]",100%,5.9%,0.7%,0.2%,0%,–,"AUC0-inf (ng · h/mL) nalmefene [2, 6]: 1026 ng·h/mL; AUC0-inf (ng · h/mL) prodrug [2, 6]: 10.4 ng·h/mL; Half-life t1/2 (hour) prodrug [2, 6]: 15.2 h; Terminal Half-life t1/2 (hour) nalmefene [2, 6]: 248 h; Mean conc Nalmefene ([2]; 1.00 h): 7.85 ng/mL; Mean conc Nalmefene ([2]; 2.00 h): 8.10 ng/mL; Mean conc Nalmefene ([2]; 4.00 h): 7.45 ng/mL; Mean conc Nalmefene ([2]; 8.00 h): 6.85 ng/mL; Mean conc Nalmefene ([2]; 24.0 h): 6.96 ng/mL; Mean conc Nalmefene ([2]; 48.0 h): 7.92 ng/mL; Mean conc Nalmefene ([2]; 72.0 h): 5.77 ng/mL; Mean conc Nalmefene ([2]; 144 h): 1.59 ng/mL; Mean conc Nalmefene ([2]; 312 h): 0.403 ng/mL; Mean conc Nalmefene ([2]; 480 h): 0.235 ng/mL; Mean conc Nalmefene ([2]; 648 h): 0.145 ng/mL"
"C=C1CC[C@@]2(O)C3Cc4ccc(OC(=O)OCCCCCCCCCC)c5c4[C@@]2(CCN3CC2CC2)[C@H]1O5 [Compound 18, (4aS,7aS,12bS)-3-(cyclopropylmethyl)-4a-hydroxy-7-methylene-2,3,4,4a,5,6,7,7a-octahydro-1H-4,12-methanobenzofuro[3,2-e]isoquinolin-9-yl decyl carbonate]",100%,0.6%,0.3%,0.1%,0%,>402 mg/mL,"Approximate Solubility (mg/mL) in Excipient: Cottonseed oil [3, 7]: >400 mg/mL; weight decreases from (earlier weight), D1502 [4]: 7.76 kg"
"C=C1CC[C@@]2(O)C3Cc4ccc(OCOC(=O)OCCCCCCCC/C=C/CCCCCCCC)c5c4[C@@]2(CCN3CC2CC2)[C@H]1O5 [Compound 1, (((4aS,7aS,12bS)-3-(cyclopropylmethyl)-4a-hydroxy-7-methylene-2,3,4,4a,5,6,7,7a-octahydro-1H-4,12-methanobenzofuro[3,2-e]isoquinolin-9-yl)oxy)methyl ((E)-octadec-9-en-1-yl) carbonate]",–,–,–,–,–,–,AUC0-inf (ng · h/mL) prodrug [5]: 1040 ng·h/mL; Half-life t1/2 (hour) prodrug [5]: 261 h
C=C1CC[C@@]2(O)[C@H]3Cc4ccc(O)c5c4[C@@]2(CCN3CC2CC2)[C@H]1O5.Cl [Nalmefene HCl-IR],–,–,–,–,–,–,"AUC0-inf (ng · h/mL) nalmefene ([2]; rat, 0.80 mg/kg, saline): 66.0 ng·h/mL; Terminal Half-life t1/2 (hour) nalmefene ([2]; rat, 0.80 mg/kg, saline): 0.87 h"
"CCCCCCCCCCCCOC(=O)OCOc1ccc2c3c1O[C@H]1C(=O)CC[C@@]4(O)C(C2)N(CC2CC2)CC[C@]314 [Compound 29, (((4aS,7aR,12bS)-3-(cyclopropylmethyl)-4a-hydroxy-7-oxo-2,3,4,4a,5,6,7,7a-octahydro-1H-4,12-methanobenzofuro[3,2-e]isoquinolin-9-yl)oxy)methyl dodecyl carbonate]",–,–,–,–,–,>416.5 mg/mL,"AUC0-inf (ng · h/mL) prodrug ([2]; rat IM, 165 mg/kg, Sesame oil + 1% Benzyl Alcohol): 74.8 ng·h/mL"
"CCCCCCCC/C=C/CCCCCCCCOC(=O)OCOc1ccc2c3c1O[C@H]1C(=O)CC[C@@]4(O)C(C2)N(CC2CC2)CC[C@]314 [Compound 7, (((4aS,7aR,12bS)-3-(cyclopropylmethyl)-4a-hydroxy-7-oxo-2,3,4,4a,5,6,7,7a-octahydro-1H-4,12-methanobenzofuro[3,2-e]isoquinolin-9-yl)oxy)methyl ((E)-octadec-9-en-1-yl) carbonate]",–,–,–,–,–,–,AUC0-inf (ng · h/mL) prodrug [5]: 610 ng·h/mL
"CCCCCCCCCCCCCCC(=O)Oc1ccc2c3c1O[C@H]1C(=O)CC[C@@]4(O)C(C2)N(CC2CC2)CC[C@]314 [Compound 58, (4aS,7aR,12bS)-3-(cyclopropylmethyl)-4a-hydroxy-7-oxo-2,3,4,4a,5,6,7,7a-octahydro-1H-4,12-methanobenzofuro[3,2-e]isoquinolin-9-yl pentadecanoate]",100%,37%,20%,2.9%,1.8%,99.4 to 198.8 mg/mL,–
"CCCCCCCCCCCCCC(=O)Oc1ccc2c3c1O[C@H]1C(=O)CC[C@@]4(O)C(C2)N(CC2CC2)CC[C@]314 [Compound 57, (4aS,7aR,12bS)-3-(cyclopropylmethyl)-4a-hydroxy-7-oxo-2,3,4,4a,5,6,7,7a-octahydro-1H-4,12-methanobenzofuro[3,2-e]isoquinolin-9-yl tetradecanoate]",100%,10.5%,3.2%,1.2%,0%,>417.3 mg/mL,–
"C=C1CC[C@@]2(O)C3Cc4ccc(OC(=O)CCCCCCC/C=C\CCCCCCCC)c5c4[C@@]2(CCN3CC2CC2)[C@H]1O5 [Compound 36, (4aS,7aS,12bS)-3-(cyclopropylmethyl)-4a-hydroxy-7-methylene-2,3,4,4a,5,6,7,7a-octahydro-1H-4,12-methanobenzofuro[3,2-e]isoquinolin-9-yl oleate]",100%,74.4%,66.3%,39.8%,19.1%,>408 mg/mL,"Approximate Solubility (mg/mL) in Excipient: Cottonseed oil [3, 7]: >407 mg/mL; Approximate Solubility (mg/mL) in Excipient: Sesame oil ([3]; heating temp. 40 °C, obs. temp. 40 °C): >411.6 mg/mL"

# Reference: patent publication US10525055B2, “Opioid receptor antagonist prodrugs” (Nirsum Laboratories, Inc., priority 2017, dated 2020)
